Reference: patent publication US6340689B1 (priority 1999, dated 2002)
Values after ≈ are worked out from the molar mass of the structure shown.

Legend:
[1] = system: L. pneumophila serogroups 1-9; assay type: cell-based, Legionella pneumophila
[2] = system: L. pneumophila serogroup 1; experiment: microbe, parasite or virus in culture; assay type: cell-based, Legionella pneumophila; conditions: for MIC 90%: L. pneumophila serogroup 1 (n = 85)
[3] = system: isolates of Legionella pneumophila and other Legionella spp.; experiment: microbe, parasite or virus in culture; assay type: cell-based
[4] = system: L. pneumophila serogroup 2; experiment: microbe, parasite or virus in culture; assay type: cell-based; conditions: Legionella pneumophila
[5] = system: L. pneumophila serogroup 8, 9; experiment: microbe, parasite or virus in culture; assay type: cell-based; conditions: Legionella pneumophila
[6] = system: Other Legionella spp.; experiment: microbe, parasite or virus in culture; assay type: cell-based
[7] = system: L. dumoffii and L. longbeachae; experiment: organism not typed; assay type: cell-based
[8] = system: L. pneumophila serogroup 4; experiment: microbe, parasite or virus in culture; assay type: cell-based; conditions: Legionella pneumophila
[9] = system: L. pneumophila serogroup 7; experiment: microbe, parasite or virus in culture; assay type: cell-based; conditions: Legionella pneumophila
[10] = system: L. dumoffii; experiment: organism not typed; assay type: cell-based
[11] = system: L. pneumophila serogroup 3; experiment: microbe, parasite or virus in culture; assay type: cell-based; conditions: Legionella pneumophila
[12] = system: L. micadadei; experiment: organism not typed; assay type: cell-based, L. micdadei
[13] = system: L. pneumophila serogroup 6; experiment: microbe, parasite or virus in culture; assay type: cell-based; conditions: Legionella pneumophila
[14] = system: Erythromycin-susceptible Legionella spp. other than L. pneumophila; assay type: cell-based
[15] = system: L. longbeacheae; experiment: organism not typed; assay type: cell-based
[16] = system: Erythromycin-susceptible L. pneumophila; assay type: cell-based, Legionella pneumophila
[17] = system: L. pneumophila serogroup 5; experiment: microbe, parasite or virus in culture; assay type: cell-based; conditions: Legionella pneumophila

For CO/N=C1\CN(c2nc3c(cc2F)c(=O)c(C(=O)O)cn3C2CC2)CC1CN (racemic) [Gemifloxacin, (R,S)-7-(3-aminomethyl-4-methoxyiminopyrrolidin-1-yl)-1-cyclopropyl-6-fluoro-4-oxo-1,4-dihydro-1,8-naphthyridine-3-carboxylic acid], the MIC range ([1]; L. pneumophila serogroups 1-9, text) was 0.008 to 0.06 µg/mL, the “fold more active than erythromycin” value ([1]; against L. pneumophila strains tested) was 5-6 fold and the “MIC 90%” value [2] was “≦0.004 mg/L”. For the same compound, the “MIC 90%” value ([2]; listed as gemifloxacin) was 0.016 µg/mL (≈ 0.0411 µM), the MIC50 ([2]; Legionella pneumophila) was 0.016 µg/mL (≈ 0.0411 µM) and the MIC ([2]; Legionella pneumophila, 48 h, read-out: MIC Range) was 0.008 to 0.06 µg/mL (≈ 0.0205 to 0.154 µM). The MIC90 [3] was 0.016 µg/mL (≈ 0.0411 µM), the MIC50 [4] was 0.008 µg/mL (≈ 0.0205 µM) and the MIC90 [4] was 0.016 µg/mL (≈ 0.0411 µM). It also gave an MIC ([4]; 48 h, read-out: MIC Range) of 0.008 to 0.016 µg/mL (≈ 0.0205 to 0.0411 µM), an MIC50 [5] of 0.016 µg/mL (≈ 0.0411 µM) and an MIC90 [5] of 0.016 µg/mL (≈ 0.0411 µM). It also gave an MIC ([5]; 48 h, read-out: MIC Range) of 0.016 µg/mL (≈ 0.0411 µM), an MIC50 [6] of 0.03 µg/mL (≈ 0.077 µM) and an MIC90 [6] of 0.06 µg/mL (≈ 0.154 µM). The MIC ([6]; 48 h, read-out: MIC Range) was 0.016 to 0.06 µg/mL (≈ 0.0411 to 0.154 µM), the MIC90 [7] was 0.06 µg/mL (≈ 0.154 µM) and the MIC50 [8] was 0.016 µg/mL (≈ 0.0411 µM). For the same compound, the MIC90 [8] was 0.03 µg/mL (≈ 0.077 µM), the MIC ([8]; 48 h, read-out: MIC Range) was 0.008 to 0.03 µg/mL (≈ 0.0205 to 0.077 µM) and the MIC50 [9] was 0.008 µg/mL (≈ 0.0205 µM). It also gave an MIC90 [9] of 0.016 µg/mL (≈ 0.0411 µM), an MIC ([9]; 48 h, read-out: MIC Range) of 0.008 to 0.016 µg/mL (≈ 0.0205 to 0.0411 µM) and an MIC50 [10] of 0.06 µg/mL (≈ 0.154 µM). The MIC90 [10] was 0.06 µg/mL (≈ 0.154 µM), the MIC ([10]; 48 h, read-out: MIC Range) was 0.06 µg/mL (≈ 0.154 µM) and the MIC50 [11] was 0.016 µg/mL (≈ 0.0411 µM). It also gave an MIC90 [11] of 0.016 µg/mL (≈ 0.0411 µM), an MIC ([11]; 48 h, read-out: MIC Range) of 0.008 to 0.016 µg/mL (≈ 0.0205 to 0.0411 µM) and an MIC50 [12] of 0.016 µg/mL (≈ 0.0411 µM). For the same compound, the MIC90 [12] was 0.03 µg/mL (≈ 0.077 µM), the “MICs fold more active than erythromycin” value [12] was 5 fold and the MIC ([12]; 48 h, read-out: MIC Range) was 0.008 to 0.03 µg/mL (≈ 0.0205 to 0.077 µM). For the same compound, the MIC50 [13] was 0.016 µg/mL (≈ 0.0411 µM), the MIC90 [13] was 0.03 µg/mL (≈ 0.077 µM) and the MIC ([13]; 48 h, read-out: MIC Range) was 0.008 to 0.03 µg/mL (≈ 0.0205 to 0.077 µM). For the same compound, the “Mean PAE” value ([14]; Erythromycin-susceptible Legionella spp. (n = 13), 4 × MIC, mean ± SD) was 2.27 ± 2 h, the “PAE (mean PAE)” value ([14]; erythromycin-susceptible Legionella spp. other than L. pneumophila, four times the MIC) was 2.27 h and the “mean PAE longer than that of trovafloxacin, moxifloxacin and clarithromycin” value ([14]; erythromycin-susceptible Legionella spp. other than pneumophila) was ≥ 1 h. For the same compound, the MIC50 [15] was 0.06 µg/mL (≈ 0.154 µM), the MIC90 [15] was 0.06 µg/mL (≈ 0.154 µM) and the MIC ([15]; 48 h, read-out: MIC Range) was 0.016 to 0.06 µg/mL (≈ 0.0411 to 0.154 µM). The “Mean PAE” value ([16]; Erythromycin-susceptible L. pneumophila (n = 15), 4 × MIC, mean ± SD) was 3.49 ± 3 h, the “mean PAE longer than that of trovafloxacin, levofloxacin and clarithromycin” value ([16]; erythromycin-susceptible L. pneumophila) was ≥ 1 h and the MIC50 [17] was 0.03 µg/mL (≈ 0.077 µM). It also gave an MIC90 [17] of 0.03 µg/mL (≈ 0.077 µM) and an MIC ([17]; 48 h, read-out: MIC Range) of 0.03 to 0.06 µg/mL (≈ 0.077 to 0.154 µM).
